Square brackets hold non-standard residues; d marks the D form. Peptide text beside a SMILES is read from it. * marks the point of attachment. Palmitoyl = CCCCCCCCCCCCCCCC(=O)*; dDab = NCC[C@@H](N)C(=O)O; Orn = NCCC[C@H](N)C(=O)O; dDap = NC[C@@H](N)C(=O)O; Dab = NCC[C@H](N)C(=O)O; Dap = NC[C@H](N)C(=O)O; NHNH2 = NN*
How the values were obtained:
Format in all cases: cell-based
COS-1 cells = test: Transfection efficiency in COS-1 cells with a beta-galactosidase encoding plasmid; settings: for Beta-galactosidase activity 1 μg DNA/well / Beta-galactosidase activity 0.2 μg DNA/well: formulated as in example 1 (DOPE liposomes added to compound/DNA), 48 h after transfection
Procedure: Dioleoyl phosphatidylethanolamine (DOPE, Avanti Polar Lipids Inc.) liposomes were prepared by drying under vacuum the lipid in solution in chloroform and then rehydrating the lipid film with 30 mM Tris Cl pH 8.5. Final lipid concentration was 2 mM. The lipid dispersion was subsequently sonicated for 10-15 min in a sonicator bath (Elgasonic, 50 kHz).
(§1) Twenty μg of plasmid DNA were diluted with 260 μl of distilled, sterile water in a polystyrene sterile tube. […] 140 μl of DOPE liposomes were then slowly added, drop by drop, to obtain a molar ratio between DOPE and Nγ-palmitoyl-D-(α,γ-diaminobutyryl)-L-(α,γ-diaminobutyric acid) hydrazide of 5:1. The complex was carefully mixed. The preparation was allowed to stand at room temperature during about 5 min and was then added to COS-1 cells grown in 96-well plates.
as §1, with “Mixed micelles of DOPE (2 μmoles) and dicaproyl phosphatidylcholine (15 μmotes) were prepared by drying the lipids under vacuum and then rehydrating the lipid film with 1 ml of 30 mM TrisCl buffer pH 8.5. Twenty” for “Twenty”, “pCH110” for “DNA”, “distilled” for “distilled, sterile”, “DOPE/dicyproyl PC mixed micelles” for “DOPE liposomes”, “added” for “added, drop by drop,”
The mixture was added to 20 μg of plasmid DNA in 260 μl of distilled water, so that the +/- charge ratio between Nγ-palmitoyl-D-(α,γ-diaminobutyryl)-L-(α,γ-diaminobutyric acid) hydrazide and plasmid DNA was 2:1. The complex was carefully mixed. The preparation was allowed to stand at room temperature during about 5 min and was then added to COS-1 cells grown in 96-well plates.

293-EBNA = test: Transfection efficiency with a luciferase encoding vector, 293-EBNA cell-line
Procedure: (§2) A transfecting complex with Nγ-palmitoyl-D-(α,γ-diaminobutyryl)-L-(α,γ-diaminobutyric acid) hydrazide (compound A) was prepared as described in example 1. Lipofectamine™ complex was prepared following manufacturer's instructions. The transfection efficiency of both systems was compared in various cell-lines using a luciferase encoding vector.
(§3) Cells were transfected with a luciferase encoding plasmid and luciferase activity was measured 48 h after transfection. Results are expressed as relative light units.

CHO K1 = test: Transfection efficiency with a luciferase encoding vector, CHO K1 cell-line
Procedure: as §2, §3

HeLa = test: Transfection efficiency with a luciferase encoding vector, HeLa cell-line
Procedure: as §2, §3

LM tk- = test: Transfection efficiency with a luciferase encoding vector, LM tk- cell-line
Procedure: as §2, §3

Molecule | Beta-galactosidase activity 1 μg DNA/well (COS-1 cells) | Beta-galactosidase activity 0.2 μg DNA/well (COS-1 cells) | other results
CCCCCCCCCCCCCCCC(=O)N[C@@H](CCN)C(=O)NN [N^α palmitoyl-L (α,γ-diaminobutyric acid) hydrazide] | 1411 μunits of beta-galactosidase p |  | 
CCCCCCCCCCCCCCCC(=O)N[C@@H](CCN)C(=O)N[C@@H](CCN)C(=O)NN [N^α palmitoyl-L (α,γ-diaminobutyryl)-L (α,γ-diaminobutyric acid) hydrazide] (Palmitoyl-[Dab]-[Dab]-NHNH2) | 3519 μunits of beta-galactosidase p | 2742 μunits of beta-galactosidase p | 
CCCCCCCCCCCCCCCC(=O)N[C@@H](CCCNC(=N)N)C(=O)N[C@@H](CCCNC(=N)N)C(=O)OCC [N^α palmitoyl-L arginyl-L arginine ethyl ester] (Palmitoyl-Arg-Arg-OEt) | 382 μunits of beta-galactosidase p | 0 μunits of beta-galactosidase p | 
CCCCCCCCCCCCCCCC(=O)N[C@@H](CCCNC(=N)N)C(=O)N[C@@H](CCCN)C(=O)OC [N^α palmitoyl-L arginyl-L ornithine methyl ester] (Palmitoyl-Arg-[Orn]-OMe) | 870 μunits of beta-galactosidase p | 0 μunits of beta-galactosidase p | 
CCCCCCCCCCCCCCCC(=O)N[C@@H](CCCCN)C(=O)N[C@@H](CCCCN)C(=O)NCc1ccccc1 [N^α palmitoyl-L lysyl-L lysine benzylamide] | 845 μunits of beta-galactosidase p | 510 μunits of beta-galactosidase p | 
CCCCCCCCCCCCCCCC(=O)N[C@@H](CCCCN)C(=O)N[C@@H](CCCCN)C(=O)O [N^α palmitoyl-L lysyl-L lysine] | 530 μunits of beta-galactosidase p | 0 μunits of beta-galactosidase p | 
CCCCCCCCCCCCCCCC(=O)N[C@@H](CCCCN)C(=O)N[C@@H](CCCCN)C(=O)N[C@@H](CCCCN)C(=O)NN [N^α palmitoyl-L lysyl-L lysyl-L lysine hydrazide] | 2232 μunits of beta-galactosidase p | 136 μunits of beta-galactosidase p | 
CCCCCCCCCCCCCCCC(=O)N[C@@H](CCCCN)C(=O)N[C@@H](CO)C(=O)OC [N^α palmitoyl-L lysyl-L serine methyl ester] | 219 μunits of beta-galactosidase p | 0 μunits of beta-galactosidase p | 
CCCCCCCCCCCCCCCC(=O)N[C@@H](CCCN)C(=O)N[C@@H](CCCN)C(=O)OC [N^α palmitoyl-L ornithyl-L ornithine methyl ester] | 789 μunits of beta-galactosidase p | 44 μunits of beta-galactosidase p | 
CCCCCCCCCCCCCCCC(=O)NCC[C@@H](N)C(=O)N[C@H](CCN)C(=O)N[C@@H](CCN)C(=O)NN [N^γ palmitoyl-D (α,γ-diaminobutyryl)-D (α,γ-diaminobutyryl)-L (α,γ-diaminobutyric acid) hydrazide] (H-[dDab](Palmitoyl)-[dDab]-[Dab]-NHNH2) | 7768 μunits of beta-galactosidase p | 1847 μunits of beta-galactosidase p | 
CCCCCCCCCCCCCCCC(=O)NC[C@@H](N)C(=O)N[C@@H](CN)C(=O)OCC [N^γ palmitoyl-D (α,ε-diaminopropionyl)-L (α,ε-diaminopropionic acid) ethyl ester] (H-[dDap](Palmitoyl)-[Dap]-OEt) | 0 μunits of beta-galactosidase p | 359 μunits of beta-galactosidase p | 
CCCCCCCCCCCCCCCC(=O)NCC[C@H](N)C(=O)N[C@H](CCN)C(=O)N[C@H](CCN)C(=O)N[C@@H](CCN)C(=O)NN [N^γ palmitoyl-L (α,γ-diaminobutyryl)-D (α,γ-diaminobutyryl)-D (α,γ-diaminobutyryl)-L (α,γ-diaminobutyric acid) hyrazide] (H-[Dab](Palmitoyl)[dDab][dDab][Dab]-NHNH2) | 542 μunits of beta-galactosidase p | 497 μunits of beta-galactosidase p | 
CCCCCCCCCCCCCCCC(=O)NCC[C@H](N)C(=O)N[C@@H](CCN)C(=O)N[C@@H](CCN)C(=O)N[C@@H](CCN)C(=O)NN [N^γ palmitoyl-L (α,γ-diaminobutyryl)-L (α,γ-diaminobutyryl)-L (α,γ-diaminobutyryl)-L (α,γ-diaminobutyric acid) hydrazide] (H-[Dab](Palmitoyl)[Dab][Dab][Dab]-NHNH2) | 7835 μunits of beta-galactosidase p | 1800 μunits of beta-galactosidase p | 
CCCCCCCCCCCCCCCC(=O)NCC[C@@H](N)C(=O)N[C@@H](CCN)C(=O)NN [cpd A, Nγ-palmitoyl-D-(α,γ-diaminobutyryl)-L-(α,γ-diaminobutyric acid) hydrazide] (H-[dDab](Palmitoyl)-[Dab]-NHNH2) | 9942 μunits of beta-galactosidase p | 5772 μunits of beta-galactosidase p | transfection efficiency expressed as beta-galactosidase activity (COS-1 cells; Example 2: DOPE/dicaproyl phosphatidylcholine mixed micelles, plasmid pCH110, 0.2 μg of DNA per well): 7280 μUnits per well; transfection efficiency expressed as beta-galactosidase activity (COS-1 cells; Example 2: DOPE/dicaproyl phosphatidylcholine mixed micelles, plasmid pCH110, 1 μg of DNA per well): 6375 μUnits per well; transfection efficiency expressed as beta-galactosidase activity (COS-1 cells; Example 3: compound premixed with DOPE liposomes, then added to DNA, 0.2 μg of DNA per well): 4205 μUnits per well; transfection efficiency expressed as beta-galactosidase activity (COS-1 cells; Example 3: compound premixed with DOPE liposomes, then added to DNA, 1 μg of DNA per well): 7880 μUnits per well; enhancement cpd A over Lipofectamine (293-EBNA): 5; enhancement cpd A over Lipofectamine (CHO K1): 33; enhancement cpd A over Lipofectamine (HeLa): 4; enhancement cpd A over Lipofectamine (LM tk-): 12
N^α methyl arachidoyl-L lysyl-L lysine methyl ester | 148 μunits of beta-galactosidase p | 0 μunits of beta-galactosidase p | 
N^α oleoyl-L lysyl-L lysine ethyl ester | 1333 μunits of beta-galactosidase p | 0 μunits of beta-galactosidase p | 
N^α palmitoyl-L (α,γ-diaminobutyryl)-L lysine methyl ester | 791 μunits of beta-galactosidase p |  | 
N^α palmitoyl-L lysyl-L lysine ethyl ester | 424 μunits of beta-galactosidase p | 138 μunits of beta-galactosidase p | 
N^α palmitoyl-L lysyl-L lysine methyl ester | 150 μunits of beta-galactosidase p | 0 μunits of beta-galactosidase p | 
N^γ γ palmitoyl-D (α,ε-diaminopropionyl)-L (α,ε-diaminopropionic acid) hydrazide | 3671 μunits of beta-galactosidase p | 0 μunits of beta-galactosidase p | 
N^ε palmitoyl-L lysyl-L lysine methyl ester | 100 μunits of beta-galactosidase p | 0 μunits of beta-galactosidase p | 
N^ε palmitoyl-L lysyl-L lysyl-L lysine methyl ester | 1426 μunits of beta-galactosidase p | 0 μunits of beta-galactosidase p | 

— patent publication US5759827A, “Acylated oligopeptides for transfecting cells” (Hoffmann-La Roche Inc., priority 1995, dated 1998)
